Tests used:
[1] = tested on: Rattus norvegicus; assay: Momoamine and metabolic levels observed 1 week following acute dosing against at a dose of 20 mg/kg Frontal cortex DOPAC; type: ADME, organism-based; design: dose 20 mg/kg; settings: in vivo, 168 h
[2] = tested on: Rattus norvegicus; assay: Momoamine and metabolic levels observed 1 week following acute dosing against at a dose of 20 mg/kg Frontal cortex HVA; type: ADME, organism-based; design: dose 20 mg/kg; settings: in vivo, 168 h
[3] = tested on: Rattus norvegicus; assay: Momoamine and metabolic levels observed 1 week following acute dosing against at a dose of 20 mg/kg Frontal cortex NE; type: ADME, organism-based; design: dose 20 mg/kg; settings: in vivo, 168 h
[4] = tested on: Rattus norvegicus; assay: Momoamine and metabolic levels observed 1 week following acute dosing against at a dose of 20 mg/kg Frontal cortex DA; type: ADME, organism-based; design: dose 20 mg/kg; settings: in vivo, 168 h
[5] = tested on: Rattus norvegicus; assay: Momoamine and metabolic levels observed 1 week following acute dosing against at a dose of 10 mg/kg Hippocampus 5-HT; type: ADME, organism-based; design: dose 10 mg/kg; settings: in vivo, 168 h
[6] = tested on: Rattus norvegicus; assay: Momoamine and metabolic levels observed 1 week following acute dosing against at a dose of 10 mg/kg Hippocampus NE; type: ADME, organism-based; design: dose 10 mg/kg; settings: in vivo, 168 h
[7] = tested on: Rattus norvegicus; assay: Momoamine and metabolic levels observed 1 week following acute dosing at a dose of 10 mg/kg Frontal cortex 5-HIAA; type: ADME, organism-based; design: dose 10 mg/kg; settings: in vivo, 168 h
[8] = tested on: Rattus norvegicus; assay: Momoamine and metabolic levels observed 1 week following acute dosing at a dose of 10 mg/kg Frontal cortex 5-HT; type: ADME, organism-based; design: dose 10 mg/kg; settings: in vivo, 168 h
[9] = tested on: Rattus norvegicus; assay: Momoamine and metabolic levels observed 1 week following acute dosing at a dose of 10 mg/kg Frontal cortex DA; type: ADME, organism-based; design: dose 10 mg/kg; settings: in vivo, 168 h
[10] = tested on: Rattus norvegicus; assay: Momoamine and metabolic levels observed 1 week following acute dosing at a dose of 10 mg/kg Frontal cortex DOPAC; type: ADME, organism-based; design: dose 10 mg/kg; settings: in vivo, 168 h
[11] = tested on: Rattus norvegicus; assay: Momoamine and metabolic levels observed 1 week following acute dosing against at a dose of 20 mg/kg Hippocampus NE; type: ADME, organism-based; design: dose 20 mg/kg; settings: in vivo, 168 h
[12] = tested on: Rattus norvegicus; assay: Momoamine and metabolic levels observed 2 weeks following sub-acute dosing against Frontal cortex 5-HIAA; type: ADME, organism-based; settings: in vivo, 336 h
[13] = tested on: Rattus norvegicus; assay: Momoamine and metabolic levels observed 2 weeks following sub-acute dosing against Frontal cortex 5-HT; type: ADME, organism-based; settings: in vivo, 336 h
[14] = tested on: Rattus norvegicus; assay: Momoamine and metabolic levels observed 2 weeks following sub-acute dosing against Frontal cortex DA; type: ADME, organism-based; settings: in vivo, 336 h
[15] = tested on: Rattus norvegicus; assay: Momoamine and metabolic levels observed 2 weeks following sub-acute dosing against Frontal cortex DOPAC; type: ADME, organism-based; settings: in vivo, 336 h
[16] = tested on: Rattus norvegicus; assay: Momoamine and metabolic levels observed 2 weeks following sub-acute dosing against Frontal cortex NE; type: ADME, organism-based; settings: in vivo, 336 h
[17] = tested on: Rattus norvegicus; assay: Momoamine and metabolic levels observed 2 weeks following sub-acute dosing against Hippocampus 5-HIAA; type: ADME, organism-based; settings: in vivo, 336 h
[18] = tested on: Rattus norvegicus; assay: Momoamine and metabolic levels observed 2 weeks following sub-acute dosing against Hippocampus 5-HT; type: ADME, organism-based; settings: in vivo, 336 h
[19] = tested on: Rattus norvegicus; assay: Momoamine and metabolic levels observed 1 week following acute dosing against at a dose of 20 mg/kg Frontal cortex 5-HIAA; type: ADME, organism-based; design: dose 20 mg/kg; settings: in vivo, 168 h
[20] = tested on: Rattus norvegicus; assay: Momoamine and metabolic levels observed 1 week following acute dosing against at a dose of 20 mg/kg Frontal cortex 5-HT; type: ADME, organism-based; design: dose 20 mg/kg; settings: in vivo, 168 h
[21] = tested on: Rattus norvegicus; assay: Momoamine and metabolic levels observed 1 week following acute dosing at a dose of 10 mg/kg Frontal cortex HVA; type: ADME, organism-based; design: dose 10 mg/kg; settings: in vivo, 168 h
[22] = tested on: Rattus norvegicus; assay: Momoamine and metabolic levels observed 1 week following acute dosing at a dose of 10 mg/kg Frontal cortex NE; type: ADME, organism-based; design: dose 10 mg/kg; settings: in vivo, 168 h
[23] = tested on: Rattus norvegicus; assay: Momoamine and metabolic levels observed 1 week following acute dosing at a dose of 10 mg/kg Hippocampus 5-HIAA; type: ADME, organism-based; design: dose 10 mg/kg; settings: in vivo, 168 h
[24] = tested on: Rattus norvegicus; assay: Momoamine and metabolic levels observed 2 weeks following sub-acute dosing against Hippocampus NE; type: ADME, organism-based; settings: in vivo, 336 h
[25] = tested on: Rattus norvegicus; assay: Momoamine and metabolic levels observed at 3 hr postdrug against, at a dose of 20 mg/kg Frontal cortex 5-HIAA; type: ADME, organism-based; design: dose 20 mg/kg; settings: in vivo
[26] = tested on: Rattus norvegicus; assay: Momoamine and metabolic levels observed at 3 hr postdrug against, at a dose of 20 mg/kg Frontal cortex 5-HT; type: ADME, organism-based; design: dose 20 mg/kg; settings: in vivo
[27] = tested on: Rattus norvegicus; assay: Momoamine and metabolic levels observed at 3 hr postdrug against, at a dose of 20 mg/kg Frontal cortex DA; type: ADME, organism-based; design: dose 20 mg/kg; settings: in vivo
[28] = tested on: Rattus norvegicus; assay: Momoamine and metabolic levels observed at 3 hr postdrug against, at a dose of 20 mg/kg Frontal cortex DOPAC; type: ADME, organism-based; design: dose 20 mg/kg; settings: in vivo
[29] = tested on: Rattus norvegicus; assay: Momoamine and metabolic levels observed at 3 hr postdrug against, at a dose of 20 mg/kg Frontal cortex NE; type: ADME, organism-based; design: dose 20 mg/kg; settings: in vivo
[30] = tested on: Rattus norvegicus; assay: Momoamine and metabolic levels observed at 3 hr postdrug against, at a dose of 20 mg/kg Hippocampus 5-HIAA; type: ADME, organism-based; design: dose 20 mg/kg; settings: in vivo
[31] = tested on: Rattus norvegicus; assay: Momoamine and metabolic levels observed at 3 h postdrug against, at a dose of 20 mg/kg Hippocampus 5-HT; type: ADME, organism-based; design: dose 20 mg/kg; settings: in vivo
[32] = tested on: Rattus norvegicus; assay: Momoamine and metabolic levels observed at 3 hr postdrug against, at a dose of 20 mg/kg Hippocampus NE; type: ADME, organism-based; design: dose 20 mg/kg; settings: in vivo
[33] = tested on: Rattus norvegicus; assay: Momoamine and metabolic levels observed 1 week following acute dosing against at a dose of 20 mg/kg Hippocampus 5-HIAA; type: ADME, organism-based; design: dose 20 mg/kg; settings: in vivo, 168 h
[34] = tested on: Rattus norvegicus; assay: Momoamine and metabolic levels observed 1 week following acute dosing against at a dose of 20 mg/kg Hippocampus 5-HT; type: ADME, organism-based; design: dose 20 mg/kg; settings: in vivo, 168 h
[35] = tested on: Rattus norvegicus; assay: Effective dose was evaluated for drug discrimination in I-trained rats, when given at a dose of 0.25 micro mol/kg; type: functional
[36] = tested on: Rattus norvegicus; assay: Effective dose was evaluated for drug discrimination in I-trained rats, when given at a dose of 0.25 mg/kg; type: functional
[37] = tested on: Rattus norvegicus; assay: Effective dose was evaluated for drug discrimination in I-trained rats, when given at a dose of 1.16 micro mol/kg; type: functional
[38] = species on record: Rattus norvegicus; assay: Compound was evaluated for the uptake inhibition of [3H]-5-HT in rats; type: functional
[39] = tested on: Rattus norvegicus; assay: Percentage of non disrupted rats that selected the drug lever, when given at a dose of 0.25 mg/kg; type: functional
[40] = tested on: Rattus norvegicus; assay: Percentage of non disrupted rats that selected the drug lever, when given at a dose of 0.25 mg/kg in S-Amphetamine-Trained rats; type: functional
[41] = tested on: Rattus norvegicus; assay: Percentage of non disrupted rats that selected the drug lever, when given at a dose of 0.5 mg/kg; type: functional
[42] = tested on: Rattus norvegicus; assay: Percentage of non disrupted rats that selected the drug lever, when given at a dose of 1.00 mg/kg in […]-Trained rats; type: functional
[43] = tested on: Rattus norvegicus; assay: Percentage of non disrupted rats that selected the drug lever, when given at a dose of 1.00 mg/kg in S-Amphetamine-Trained rats; type: functional
[44] = tested on: Rattus norvegicus; assay: Percentage of non disrupted rats that selected the drug lever, when given at a dose of 2.00 mg/kg; type: functional
[45] = tested on: Rattus norvegicus; assay: Percentage of non disrupted rats that selected the drug lever, when given at a dose of 2.00 mg/kg in […]-Trained rats; type: functional
[46] = tested on: Rattus norvegicus; assay: Percentage of non disrupted rats that selected the drug lever, when given at a dose of 2.50 mg/kg in […]-Trained rats; type: functional; settings: dose 2.5 mg/kg
[47] = tested on: Rattus norvegicus; assay: Percentage of non disrupted rats that selected the drug lever, when given at a dose of 0.5 mg/kg in […]-Trained rats; type: functional
[48] = tested on: Rattus norvegicus; assay: Percentage of non disrupted rats that selected the drug lever, when given at a dose of 0.5 mg/kg in S-Amphetamine-Trained rats; type: functional
[49] = tested on: Rattus norvegicus; assay: Percentage of non disrupted rats that selected the drug lever, when given at a dose of 1.00 mg/kg; type: functional
[50] = biological target: Sodium-dependent serotonin transporter (Rattus norvegicus) (UniProt P31652); assay: Number of uptake sites for [3H]paroxetine receptor binding after sub-acute dosing against Frontal cortex; type: tissue-based
[51] = biological target: Sodium-dependent serotonin transporter (Rattus norvegicus) (UniProt P31652); assay: Number of uptake sites for [3H]paroxetine receptor binding after sub-acute dosing against Hippocampus
[52] = tested on: Rattus norvegicus; assay: Momoamine and metabolic levels observed 2 weeks following sub-acute dosing against Frontal cortex HVA; type: ADME, organism-based; settings: in vivo, 336 h
[53] = tested on: Rattus norvegicus; assay: Momoamine and metabolic levels observed at 3 hr postdrug against, at a dose of 20 mg/kg Frontal cortex HVA; type: ADME, organism-based; design: dose 20 mg/kg; settings: in vivo

Sodium-dependent serotonin transporter (Rattus norvegicus), sequence (P31652 whole entry): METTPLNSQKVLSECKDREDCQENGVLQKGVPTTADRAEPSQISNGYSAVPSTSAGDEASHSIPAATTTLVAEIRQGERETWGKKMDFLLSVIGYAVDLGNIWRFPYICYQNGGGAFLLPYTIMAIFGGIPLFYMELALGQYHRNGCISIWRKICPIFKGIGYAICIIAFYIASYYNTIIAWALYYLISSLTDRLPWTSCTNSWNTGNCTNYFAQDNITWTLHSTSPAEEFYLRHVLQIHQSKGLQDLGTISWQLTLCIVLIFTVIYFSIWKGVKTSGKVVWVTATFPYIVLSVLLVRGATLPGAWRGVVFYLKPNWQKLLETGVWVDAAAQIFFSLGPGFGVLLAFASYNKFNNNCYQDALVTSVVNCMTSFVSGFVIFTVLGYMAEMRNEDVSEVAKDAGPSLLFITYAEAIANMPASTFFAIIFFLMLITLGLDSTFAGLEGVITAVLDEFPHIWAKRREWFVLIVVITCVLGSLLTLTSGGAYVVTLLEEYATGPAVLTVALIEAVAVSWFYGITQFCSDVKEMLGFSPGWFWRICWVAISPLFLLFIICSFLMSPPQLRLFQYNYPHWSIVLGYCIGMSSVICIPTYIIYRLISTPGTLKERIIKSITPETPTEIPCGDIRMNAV

## COc1ccc2c(c1C)CC(N)C2 (centres undefined)
[1]
  Metabolite level: 35
[2]
  Metabolite level: 65
[3]
  Metabolite level: 509
[4]
  Metabolite level: 81
[5]
  Metabolite level: 312
[6]
  Metabolite level: 633
[7]
  Metabolite level: 210
[8]
  Metabolite level: 312
[9]
  Metabolite level: 88
[10]
  Metabolite level: 36
[11]
  Metabolite level: 583
[12]
  Metabolite level: 256
[13]
  Metabolite level: 415
[14]
  Metabolite level: 92
[15]
  Metabolite level: 54
[16]
  Metabolite level: 568
[17]
  Metabolite level: 518
[18]
  Metabolite level: 434
[19]
  Metabolite level: 240
[20]
  Metabolite level: 316
[21]
  Metabolite level: 74
[22]
  Metabolite level: 414
[23]
  Metabolite level: 434
[24]
  Metabolite level: 716
[25]
  Metabolite level: 146
[26]
  Metabolite level: 148
[27]
  Metabolite level: 113
[28]
  Metabolite level: 40
[29]
  Metabolite level: 558
[30]
  Metabolite level: 272
[31]
  Metabolite level: 256
[32]
  Metabolite level: 646
[33]
  Metabolite level: 476
[34]
  Metabolite level: 462
[35]
  ED50: 2.63 µmol/kg
[36]; Rattus norvegicus, read-out: ED50
  ED50: 0.81 mg/kg
[36]; dose 0.25 mg/kg
  ED50: 0.56 mg/kg
[37]
  ED50: 3.77 µmol/kg
[38]
  IC50: 212 nM
[39]
  SDL: 13%
[40]
  SDL: 17%
[41]
  SDL: 25%
[42]
  SDL: 13%
[43]
  SDL: 50%
[44]
  SDL: 100%
[45]
  SDL: 38%
[46]
  SDL: 50%
[47]
  SDL: 11%
[48]
  SDL: 33%
[49]
  SDL: 75%
[50]
  No. of uptake sites: 13.6
[51]
  No. of uptake sites: 15.6
[52]
  Metabolite level: 59
[53]
  Metabolite level: 112
